Results published in the supplement of paper PMC10307832.

How the values were obtained:
Assay in all cases: relative viability (nuclei count vs DMSO), 5 days (fraction); higher = more cells survive
RU-SKI 43 = compound: CC[C@@H](C)CNCC(=O)N1CCC2=C([C@@H]1COC3=CC=CC(=C3)C)C=CS2 [RU-SKI 43]
Procedure, shortened: (§1)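 Vehicle-anchored 1536-well plates of lung cancer cell lines, held overnight at 37 °C, were pinned with five library-drug doses (not always all listed) spaced by √10. No medium change followed over the next 5 days, after which the cells were fixed, permeabilised and Hoechst-stained together and imaged at 4×. Nuclei were counted with MetaXpress, and viability is treated-well nuclei over vehicle-well nuclei, taken as a median across plates. Plates passed with control CV below 25% and at least one doubling.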

MK-8033 = compound: Cn1cc(-c2cnc3ccc4ccc(CS(=O)(=O)NCc5ccccn5)cc4c(=O)c3c2)cn1 [MK-8033]
Procedure, shortened: as §1

Irinotecan = compound: CCc1c2c(nc3ccc(OC(=O)N4CCC(N5CCCCC5)CC4)cc13)-c1cc3c(c(=O)n1C2)COC(=O)[C@]3(O)CC [Irinotecan]
Procedure, shortened: as §1

| Cell Line | relative viability (RU-SKI 43; 0.1 µM) | relative viability (RU-SKI 43; 0.3162 µM) | relative viability (RU-SKI 43; 1 µM) | relative viability (RU-SKI 43; 3.162 µM) | relative viability (RU-SKI 43; 10 µM) | relative viability (MK-8033; 0.02 µM) | relative viability (MK-8033; 0.06325 µM) | relative viability (MK-8033; 0.2 µM) | relative viability (MK-8033; 0.6325 µM) | relative viability (MK-8033; 2 µM) | relative viability (Irinotecan; 2 µM) | relative viability (Irinotecan; 6.325 µM) | relative viability (Irinotecan; 20 µM) | relative viability (Irinotecan; 0.6325 µM) |
| --- | --- | --- | --- | --- | --- | --- | --- | --- | --- | --- | --- | --- | --- | --- |
| 201T | 1.03 | 0.973 | 1.08 | 1.05 | 0.981 | 0.967 | 0.974 | 0.9 | 0.976 | 0.963 | 0.996 | 0.467 | 0.33 | – |
| A549 | 1 | 1.12 | 1.13 | 0.939 | 0.9 | 0.996 | 0.932 | 0.93 | 0.913 | 0.943 | 0.78 | 0.2 | 0.0915 | 0.943 |
| A-427 | 1.09 | 1.02 | 1.12 | 0.94 | 1.03 | 1.05 | 0.963 | 0.877 | 1.06 | 0.96 | 0.844 | 0.299 | 0.21 | – |
| ABC-1 | 1.06 | 0.985 | 1.33 | 0.984 | 0.85 | 0.972 | 0.861 | 0.886 | 0.965 | 1.04 | 0.956 | 0.496 | 0.21 | – |
| BEN | 1.05 | 0.987 | 1.25 | 0.991 | 1.05 | 1.04 | 0.913 | 0.963 | 0.934 | 0.939 | 0.73 | 0.345 | 0.338 | 0.735 |
| CAL-12T | 1.04 | 1.04 | 1.14 | 0.907 | 1 | 1.01 | 0.936 | 0.962 | 1.07 | 0.951 | 1.04 | 0.485 | 0.293 | 0.81 |
| COR-L23 | 0.943 | 1.14 | 1.16 | 1.16 | 0.921 | 1.01 | 1.02 | 0.947 | 1.06 | 0.981 | 0.419 | 0.215 | 0.144 | 0.412 |
| COR-L 105 | 1.01 | 0.853 | 0.963 | 1.07 | 0.899 | 1.04 | 0.809 | 0.854 | 0.94 | 0.826 | 0.903 | 0.603 | 0.339 | 0.803 |
| Calu-6 | 0.948 | 1.21 | 1.07 | 1.08 | 0.966 | 1.02 | 0.906 | 0.923 | 1.06 | 1 | 0.59 | 0.247 | 0.133 | 0.724 |
| ChaGo-K-1 | 1.02 | 1.02 | 1.1 | 0.988 | 0.946 | 1.03 | 0.907 | 0.941 | 1.01 | 0.873 | 0.7 | 0.295 | 0.261 | 0.759 |
| EBC-1 | 0.863 | 1.13 | 1.1 | 0.989 | 0.635 | 0.973 | 0.943 | 0.965 | 0.928 | 0.386 | 0.44 | 0.345 | 0.179 | 0.618 |
| EKVX | 0.873 | 0.971 | 0.977 | 0.994 | 0.965 | 0.993 | 0.858 | 0.906 | 0.935 | 1.03 | 0.804 | 0.504 | 0.261 | 0.711 |
| EMC-BAC-2 | 1.04 | 0.983 | 1.28 | 0.97 | 0.971 | 1.13 | 0.904 | 0.916 | 1.03 | 0.947 | 0.616 | 0.328 | 0.231 | 0.562 |
| EPLC-272H | 1 | 0.905 | 1.07 | 0.857 | 0.915 | 0.923 | 0.745 | 0.85 | 0.991 | 0.76 | 0.665 | 0.282 | 0.243 | 0.419 |
| H3255 | 1.02 | 0.995 | 1.11 | 0.995 | 0.885 | 1.06 | 0.853 | 0.942 | 0.794 | 0.942 | 0.684 | 0.392 | 0.379 | 0.743 |
| HARA | 1.06 | 0.959 | 1.05 | 1.06 | 0.84 | 0.97 | 0.769 | 0.87 | 0.806 | 0.944 | 0.618 | 0.308 | 0.245 | 0.612 |
| HCC-15 | 1.07 | 1.09 | 1.11 | 1.11 | 0.993 | 1.05 | 0.968 | 0.86 | 1.02 | 0.999 | 0.684 | 0.241 | 0.182 | 0.444 |
| HCC-44 | 1.05 | 0.972 | 1.09 | 0.933 | 0.969 | 1.05 | 1.02 | 0.949 | 1.01 | 0.957 | 0.915 | 0.409 | 0.331 | 0.718 |
| HCC-78 | 1.01 | 0.961 | 1.2 | 0.944 | 0.911 | 0.959 | 0.895 | 0.863 | 0.982 | 0.926 | 0.686 | 0.24 | 0.326 | 0.8 |
| HCC-366 | 1.11 | 1.23 | 1.05 | 1.08 | 0.979 | 1.03 | 1.03 | 0.977 | 1.02 | 1.06 | 0.615 | 0.093 | 0.081 | 0.591 |
| HCC-827 | 1.06 | 1.01 | 1.1 | 1.05 | 1.06 | 1.01 | – | 1.01 | 1.01 | 1.05 | 0.779 | 0.263 | 0.296 | 0.938 |
